From patent US12251387B2, “Substituted quinoxalines and benzo[c][1,2,5]oxadiazoles as DNA-PK inhibitors” (Vertex Pharmaceuticals Incorporated, priority 2013, dated 2025)

What follows are compounds tested against DNA-PK (Homo sapiens, UniProt P78527) (assay: DNA-PK Inhibition Assay (standard radiometric kinase assay, 33P-ATP, peptide substrate)). Conditions: radiometric assay, approximately 6 nM DNA-PK, 100 μM ATP, 45 min; fit to competitive tight-binding inhibition; read-out: Ki for the inhibition of DNA-PK.
Format: biochemical
How it was run: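 Radiometric transfer of 33P from ATP (100 μM) to peptide substrate (0.8 mg/mL) by about 6 nM DNA-PK with 10 μg/mL sheared dsDNA, pH 7.5 HEPES/MgCl2, 45 min, phosphoric acid quench, filter capture and scintillation counting. Ki fitted to a competitive tight-binding inhibition model.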

Ki, < 100 nM:
COCc1ccnc(N[C@H]2CC[C@@H](Oc3cc(N4CCOCC4)cc4nccnc34)CC2)c1 [Compound 582]
CN(C)Cc1cc(N[C@H]2CC[C@@H](Oc3cc(N4CCOCC4)cc4nccnc34)CC2)ncn1 [Compound 390]
c1cc(N[C@H]2CC[C@@H](Oc3cc(N4CCOCC4)cc4nccnc34)CC2)cnn1 [Compound 354]
Cc1cncnc1N[C@H]1CC[C@@H](Oc2cc(N3CCOCC3)cc3nccnc23)CC1 [Compound 471]
c1cnc2c(O[C@H]3CC[C@@H](Nc4ccc(OCCN5CCOCC5)cn4)CC3)cc(N3CCOCC3)cc2n1 [Compound 639]
COc1ccnc(N[C@H]2CC[C@@H](Oc3cc(N4CCOCC4)cc4nccnc34)CC2)c1 [Compound 627]
CC1(C)OCc2cc(N[C@H]3CC[C@@H](Oc4cc(N5CCOCC5)cc5nccnc45)CC3)cnc21 [Compound 571]
COc1cc(N[C@H]2CC[C@@H](Oc3cc(N4CCOCC4)cc4nccnc34)CC2)nc(C)n1 [Compound 659]
Cc1cncc(N[C@H]2CC[C@@H](Oc3cc(N4CCOCC4)cc4nccnc34)CC2)n1 [Compound 373]
c1cnc2c(O[C@H]3CC[C@@H](Nc4ncc(OCCN5CCCC5)cn4)CC3)cc(N3CCOCC3)cc2n1 [Compound 509]
c1cnc2c(O[C@H]3CC[C@@H](Nc4ncc(CN5CCCCC5)cn4)CC3)cc(N3CCOCC3)cc2n1 [Compound 495]
COc1ccc(N[C@H]2CC[C@@H](Oc3cc(N4CCOCC4)cc4nccnc34)CC2)nc1OC [Compound 583]
Fc1c[nH]c2ncnc(N[C@H]3CC[C@@H](Oc4cc(N5CCOCC5)cc5nccnc45)CC3)c12 [Compound 437]
Cc1cccnc1N[C@H]1CC[C@@H](Oc2cc(N3CCOCC3)cc3nccnc23)CC1 [Compound 586]
Cc1nc(C)c(F)c(N[C@H]2CC[C@@H](Oc3cc(N4CCOCC4)cc4nccnc34)CC2)n1 [Compound 463]
FC(F)(F)c1cnc(N[C@H]2CC[C@@H](Oc3cc(N4CCOCC4)cc4nccnc34)CC2)nc1 [Compound 418]
Clc1nccc(N[C@H]2CC[C@@H](Oc3cc(N4CCOCC4)cc4nccnc34)CC2)n1 [Compound 533]
Cc1cc(N[C@H]2CC[C@@H](Oc3cc(N4CCOCC4)cc4nccnc34)CC2)n[nH]c1=O [Compound 599]
CNC(=O)c1ccnc(N[C@H]2CC[C@@H](Oc3cc(C4=CCOCC4)cc4nccnc34)CC2)n1 [Compound 319]
OC1(c2ccc(N[C@H]3CC[C@@H](Oc4cc(N5CCOCC5)cc5nccnc45)CC3)cn2)COC1 [Compound 468]
c1nc2c(c(N[C@H]3CC[C@@H](Oc4cc(N5CCOCC5)cc5nccnc45)CC3)n1)CCC2 [Compound 487]
c1cc(OCCN2CCOCC2)nc(N[C@H]2CC[C@@H](Oc3cc(N4CCOCC4)cc4nccnc34)CC2)n1 [Compound 560]
Cc1nccc(N[C@H]2CC[C@@H](Oc3cc(C4=CCOCC4)cc4nccnc34)CC2)n1 [Compound 352]
COC(=O)c1cc(N[C@H]2CC[C@@H](Oc3cc(N4CCOCC4)cc4nccnc34)CC2)ncc1O [Compound 404]
c1cc(-c2cnc(N[C@H]3CC[C@@H](Oc4cc(N5CCOCC5)cc5nccnc45)CC3)nc2)[nH]n1 [Compound 462]
OCc1cnc(N[C@H]2CC[C@@H](Oc3cc(N4CCOCC4)cc4nccnc34)CC2)cn1 [Compound 577]
FC(F)(F)c1cccnc1N[C@H]1CC[C@@H](Oc2cc(N3CCOCC3)cc3nccnc23)CC1 [Compound 593]
FC(F)(F)c1cccc(N[C@H]2CC[C@@H](Oc3cc(N4CCOCC4)cc4nccnc34)CC2)n1 [Compound 587]
Cc1ncc(N[C@H]2CC[C@@H](Oc3cc(N4CCOCC4)cc4nccnc34)CC2)c(C)n1 [Compound 449]
CC(C)(C)OC(=O)c1cc(N[C@H]2CC[C@@H](Oc3cc(N4CCOCC4)cc4nccnc34)CC2)ccc1F [Compound 421]
CCSc1nc(C)cc(N[C@H]2CC[C@@H](Oc3cc(N4CCOCC4)cc4nccnc34)CC2)n1 [Compound 635]
COc1ncnc(N[C@H]2CC[C@@H](Oc3cc(N4CCOCC4)cc4nccnc34)CC2)c1F [Compound 376]
CC(C)(O)CNc1ncnc(N[C@H]2CC[C@@H](Oc3cc(N4CCOCC4)cc4nccnc34)CC2)c1F [Compound 377]
COC(=O)[C@H](CC(C)C)NC(=O)N[C@H]1CC[C@@H](Oc2cc(N3CCOCC3)cc3nccnc23)CC1 [Compound 391]
Cc1nccc(N[C@H]2CC[C@@H](Oc3cc(N4CC5CCC(C4)O5)cc4nccnc34)CC2)n1 [Compound 297]
CNC(=O)c1ccnc(N[C@H]2CC[C@@H](Oc3cc(N4CCOCC4)cc4nccnc34)CC2)n1 [Compound 350]
Oc1nc(N[C@H]2CC[C@@H](Oc3cc(N4CCOCC4)cc4nccnc34)CC2)nc(C2CC2)n1 [Compound 600]
c1cnc2c(O[C@H]3CC[C@@H](Nc4ccc(OCCN5CCCCC5)cn4)CC3)cc(N3CCOCC3)cc2n1 [Compound 640]
COc1cccnc1N[C@H]1CC[C@@H](Oc2cc(N3CCOCC3)cc3nccnc23)CC1 [Compound 592]
CN(C)CCNC(=O)c1cnc(N[C@H]2CC[C@@H](Oc3cc(N4CCOCC4)cc4nccnc34)CC2)nc1 [Compound 328]
c1cnc2c(O[C@H]3CC[C@@H](Nc4ncc(CN5CCCC5)cn4)CC3)cc(N3CCOCC3)cc2n1 [Compound 528]
Fc1c(NC2CCOCC2)ncnc1N[C@H]1CC[C@@H](Oc2cc(N3CCOCC3)cc3nccnc23)CC1 [Compound 378]
Cn1ccc(N[C@H]2CC[C@@H](Oc3cc(N4CCOCC4)cc4nccnc34)CC2)cc1=O [Compound 311]
CCc1cc(N[C@H]2CC[C@@H](Oc3cc(N4CCOCC4)cc4nccnc34)CC2)ncn1 [Compound 651]
COc1cnc(N(C)C)nc1N[C@H]1CC[C@@H](Oc2cc(N3CCOCC3)cc3nccnc23)CC1 [Compound 386]
Clc1nc(N[C@H]2CC[C@@H](Oc3cc(N4CCOCC4)cc4nccnc34)CC2)nc2cc[nH]c12 [Compound 514]
O=C1NCCc2nc(N[C@H]3CC[C@@H](Oc4cc(N5CCOCC5)cc5nccnc45)CC3)sc21 [Compound 322]
CN(C)Cc1ccnc(N[C@H]2CC[C@@H](Oc3cc(N4CCOCC4)cc4nccnc34)CC2)n1 [Compound 483]
Cc1ccncc1N[C@H]1CC[C@@H](Oc2cc(N3CCOCC3)cc3nccnc23)CC1 [Compound 443]
CN(C)CCOc1cnc(N[C@H]2CC[C@@H](Oc3cc(N4CCOCC4)cc4nccnc34)CC2)nc1 [Compound 624]
FC(F)Oc1ccc(N[C@H]2CC[C@@H](Oc3cc(N4CCOCC4)cc4nccnc34)CC2)nc1 [Compound 572]
CCOc1ccc(N[C@H]2CC[C@@H](Oc3cc(N4CCOCC4)cc4nccnc34)CC2)nc1 [Compound 658]
Clc1nc(N[C@H]2CC[C@@H](Oc3cc(N4CCOCC4)cc4nccnc34)CC2)c2cn[nH]c2n1 [Compound 423]
